The nature of series [1]: Plasma cholesterol and brain LDLR and ApoE expression in treated 3×Tg-AD and 5×FAD mice. It is filed as in vivo, mouse. The conditions noted are these: 5×FAD mice treated with 6KApoEp. As to the method:
(§1) Total cell associated cholesterol levels are represented as mean±s.d. (μg/mg of total intracellular protein) from three independent experiments. In addition, total plasma cholesterol levels in 3×Tg-AD mice treated with ApoEp (n=6) and 5×FAD mice treated with 6KApoEp (n=10) or PBS (Ctrl, n=10), as described in FIGS. 25A-26G, and in associated wild-type mice (WT) were analyzed by flourometric cholesterol quantitation kit (FIG. 31B). LDLR (FIG. 31C, top panel) and ApoE (middle panel) expression levels in brain homogenates were also analyzed by WB. […] (*P<0.05) and P>0.0.5, non-significant compared to control treatment.

In series [2] the test system is CHO/APPwt cells. Kind of series: Total cell associated cholesterol in CHO/APPwt cells. It is filed as cell-based, Chinese hamster. Particulars: 6KApoEp 0, 5 and 10 μM overnight. On the procedure: as §1
CHO/APPwt cells were cultured overnight in 6-well plates at 2×10^6 cells/well in serum free DMEM, followed by washing 3 times with ice-cold PBS, lysis by sonication in chloroform:isopropanol:IGEPAL CA-630 (7:11:0.1) and centrifugation. The organic phase was transferred to a new tube, air dried at 50° C. to remove chloroform and diluted 10-fold in cholesterol assay buffer for cholesterol determination by flourometric cholesterol quantitation kit according to manufacturer's instructions (MilliporeSigma).

Series [3] concerns CHO/APPwt cells. Kind of series: Aβ production in CHO/APPwt cells, treatment alone (Aβ1-40, 42 ELISA, 82E1 WB). Format: cell-based, Chinese hamster. The conditions noted are these: for Aβ production (Aβ1-40, 42): serum-free medium, 2 h (ELISA) or 16 h (WB). On the procedure:
Chinese hamster ovary (CHO) cells overexpressing human wild-type amyloid precursor protein (APPwt) (CHO/APPwt cells) were cultured in 96-well plate at about 2×10^4/well in Dulbecco's modified Eagle's medium (DMEM) with 10% fetal bovine serum (FBS), 1 mM sodium pyruvate and 100 U/mL of penicillin/streptomycin for 18 hours.
CHO/APPwt cells were cultured in 96-well plate (about 2×10^4/well) in serum-free medium and treated with ApoE LDLR, FlagApoE LDLR (SEQ ID NO.: 1 with an N-terminal FLAG tag), BiotinApo LDLR (SEQ ID NO.: 1 with an N-terminal Biotin) and 3 lysinesApoE LDLR (3KApoE LDLR (SEQ ID NO.: 2)) at indicated doses for about 2 hours.
The conditioned media and cell lysates were prepared, and subjected to Aβ ELISA and protein assay.
CHO cells overexpressing human wild-type APP (CHO/APPwt) cells were cultured in 96-well plate at 2×10^4/well in Dulbecco's modified Eagle's medium (DMEM) with 10% fetal bovine serum (FBS), 1 mM sodium pyruvate and 100 U/mL of penicillin/streptomycin for 18 hours. […] 82E1 WB analyses as shown below the Aβ ELISA result histograms. The Aβ ELISA results are representative of three independent experiments with each condition triplicated and presented as mean±SD.
(residues 133-152, SEQ ID NO: 1)] as indicated for 2 and 16 hours (h). The conditioned media and cell lysates were analyzed by Aβ1-40, 42 ELISA (FIG. 10A), 82E1 WB analysis (FIG. 10B) and protein assay, respectively. In addition, (FIG. 10C) CHO/APPwt cells were cultured in 96-well plate (2×10^4/well) in serum-free DMEM and treated with FlagApoE-LBDP, BiotinApoE-LBDP and 3 lysineApoE-LBDP (3KApoE-LBDP) in comparing to ApoE-LBDP at indicated doses for 2 hours (h). […] (SEQ ID NO: 2); […]-[…] (SEQ ID NO: 10); Biotin-[…] (SEQ ID NO: 1 with an N-Terminal Biotin).
CHO cells engineered to express human wild-type APP (CHO/APPwt) or Swedish mutant APP (CHO/APPswe) were obtained. These cells were cultured in 96 or 24 well plates at 4×10^4 or 2×10^5 cells/well, respectively, in Dulbecco's modified Eagle's medium (DMEM) with 10% fetal bovine serum, 1 mM sodium pyruvate and 100 U/mL of penicillin/streptomycin (Invitrogen, Thermo Fisher Scientific). In addition, murine N2a cells transfected with APPwt (N2a/APPwt were obtained), SH-SY5Y cells transfected with APPswe and wild-type SH-SY5Y cells (ATCC, Manassas, Va.) were cultured as previously described^42. Primary hN2TM human neurons (Neuromics, Edina, Minn.) were cultured in hN2TM human neuron culture media and primary HCN2 human neurons (ATCC) were cultured in DMEM with 4 mM L-glutamine adjusted to contain 1.5 g/L sodium bicarbonate, 4.5 g/L glucose, fetal bovine serum (10%).
(§2) Aβ1-40, 42 and sAPPα from cell and brain homogenates were detected by Aβ1-40, 42 and sAPPα ELISA kits (IBL-America), strictly following the manufacturer's instructions^43,44.
(§3) WB analyses were performed as previously described^43,44. Briefly, 10% bicine/tris gel containing 8 M urea was used for separation of Aβ1-40, 42 species from brain homogenates or CHO cell conditioned media or lysates, followed by transfer to 0.2 μm pore-size nitrocellulose membrane (Bio-Rad, Hercules, Calif.). The membrane was boiled in PBS for 3 to 5 min before blocking to enhance sensitivity and then incubated with 82E1. For all other proteins detected by WB, 10% tris-SDS gels were used. Densitometry analysis was performed as previously described using a FluorS Multiimager with Quantity One™ software 43.
(In general: An ELISA detects its analyte on a solid surface through an enzyme-linked reagent.)

Series [4] relates to CHO/APPwt cells. Nature of the series: Inhibition of apoE-/lipoprotein-induced Aβ production in CHO/APPwt cells (Aβ ELISA). It is filed as cell-based, Chinese hamster. As to the method: CHO/APPwt cells were treated with apoE LDLR binding domain peptide (aa 133-152, ApoEp), FlagApoEp, BiotinApoEp, 3K (lysine) ApoEp, 3D (aspartate) ApoEp or scrambled peptide at 0 to 25 μM, followed after 2 h by analysis of Aβ levels in conditioned media by ELISA (Aβ ELISA, FIGS. 19A and 19C) and after 16 h by analysis of Aβ in cell lysates by Western blot using 82E1 antibody (Aβ WB, FIG. 19B). […] Pre-incubating with HDL has been previously reported to lipidate apoE. Hu astro med was obtained from human astrocytes (CCF-STTG1/ATCC® CRL-1718™) as described previously. […]
CHO cells were also transfected with pCMV6 APP695 or pCMV6 E1 depleted APP695, yielding cells expressing wild type APP695 (CHO/APPwt) or truncated APP695 lacking the N-terminal E1 region (CHO/APPdE1). […] Diagram indicates important domains identified in APP, including N-terminal E1 region (top panel), and APPwt and APPdE1 proteins in cell lysates and conditioned media derived from the transfected CHO cells as determined by WB using 6E10 (middle panels). […] Asterisk indicates P<0.05 compared with the corresponding absence of 22C11, 6H3B5 or 6KApoEp, or with corresponding CHO/APPwt cells, as determined by one-way ANOVA. […]
as §2

In series [5] the target is T1, CHO/APPwt cell conditioned medium-derived sAPPα (cmsAPPα) (human, UniProt P05067 18-687, limits assumed).
T1 construct: domain: sAPPα
Nature of the series: in vitro incubation 1 h at 37 °C, IP with 6H3B5, WB.

Series [6] has as its target T2, human recombinant sAPPβ (rsAPPβ, without Aβ domain) (human, UniProt P05067 18-671, limits assumed).
T2 construct: domain: sAPPβ (without Aβ domain); Bought protein
The series is described as above.

Series [7] concerns the target T3, human recombinant sAPPα (rsAPPα) (human, UniProt P05067 18-687, limits assumed).
T3 construct: domain: sAPPα; also called human sAPPα protein
Described as above.

Series [8] concerns the target T4, human wild-type amyloid precursor protein (APPwt) expressed in CHO/APPwt cells (human, UniProt P05067 18-770).
T4 construct: whole, on cells; Full-length APP in cell lysates or on fixed CHO/APPwt cells; also called full-length APP; f-APP
Kind of series: CHO/APPwt cells treated 2 h; IP of cell lysates with 6H3B5 or pN-APP and WB; immunofluorescence. As to the method:
as §3, with “described^{43,44}.” for “described^43,44.”, “43. Immunoprecipitation (IP) was performed by first incubating conditioned media or cell lysates with appropriate antibodies and Protein-A/G Mag Sepharose beads (GE Healthcare Life Sciences, Pittsburgh, Pa.) overnight with gentle rocking at 4° C., followed by three washes with binding buffer (50 mM tris, 150 mM NaCl, pH 7.5) and analysis by WB.” for “43.”

Series [9] has as its target T5, total secreted APP (t-sAPP) in CHO/APPwt conditioned media (human, UniProt P05067 18-687, limits assumed).
T5 construct: domain: total secreted APP (t-sAPP); Mixture of secreted APP ectodomain forms
Kind of series: CHO/APPwt cells treated 2 h; IP of conditioned media with 6H3B5 or pN-APP and WB. As to the method:
as §3, with “described^{43,44}.” for “described^43,44.”, “43. Immunoprecipitation (IP) was performed by first incubating conditioned media or cell lysates with appropriate antibodies and Protein-A/G Mag Sepharose beads (GE Healthcare Life Sciences, Pittsburgh, Pa.) overnight with gentle rocking at 4° C., followed by three washes with binding buffer (50 mM tris, 150 mM NaCl, pH 7.5) and analysis by WB.” for “43.”

Series [10] addresses T4, human wild-type amyloid precursor …. Nature of the series: cell-based or functional assay.

The values below come from patent US20190185544A1, “COMPOSITIONS AND METHODS OF MODULATING ABETA PROTEIN” (University of South Florida, priority 2016, published 2019).

Entries after “also recorded” stand apart in the source; their conditions may differ. Residues, ends and D or L forms follow the SMILES beside them.

T4 sequence (P05067 18-770): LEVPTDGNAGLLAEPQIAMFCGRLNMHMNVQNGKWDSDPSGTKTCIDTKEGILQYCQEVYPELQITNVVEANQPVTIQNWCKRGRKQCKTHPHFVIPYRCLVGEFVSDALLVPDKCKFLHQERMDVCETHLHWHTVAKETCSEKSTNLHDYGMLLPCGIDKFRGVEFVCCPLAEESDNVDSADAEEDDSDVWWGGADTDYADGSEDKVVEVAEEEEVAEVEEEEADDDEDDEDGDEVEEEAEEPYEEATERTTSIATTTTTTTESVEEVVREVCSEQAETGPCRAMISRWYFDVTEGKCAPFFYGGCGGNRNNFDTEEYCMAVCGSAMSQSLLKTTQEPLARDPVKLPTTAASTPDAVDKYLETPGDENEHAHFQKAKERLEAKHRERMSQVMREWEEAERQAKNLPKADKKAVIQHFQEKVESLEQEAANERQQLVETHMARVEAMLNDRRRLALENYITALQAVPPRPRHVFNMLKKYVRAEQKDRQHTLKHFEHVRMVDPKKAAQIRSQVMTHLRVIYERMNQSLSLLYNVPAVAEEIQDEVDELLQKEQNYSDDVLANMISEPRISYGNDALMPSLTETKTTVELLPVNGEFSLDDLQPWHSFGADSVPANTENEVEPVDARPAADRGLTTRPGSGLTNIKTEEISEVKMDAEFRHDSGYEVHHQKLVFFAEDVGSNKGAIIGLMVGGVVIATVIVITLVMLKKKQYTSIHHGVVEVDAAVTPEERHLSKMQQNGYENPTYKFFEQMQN
T5 sequence (P05067 18-687 limits assumed): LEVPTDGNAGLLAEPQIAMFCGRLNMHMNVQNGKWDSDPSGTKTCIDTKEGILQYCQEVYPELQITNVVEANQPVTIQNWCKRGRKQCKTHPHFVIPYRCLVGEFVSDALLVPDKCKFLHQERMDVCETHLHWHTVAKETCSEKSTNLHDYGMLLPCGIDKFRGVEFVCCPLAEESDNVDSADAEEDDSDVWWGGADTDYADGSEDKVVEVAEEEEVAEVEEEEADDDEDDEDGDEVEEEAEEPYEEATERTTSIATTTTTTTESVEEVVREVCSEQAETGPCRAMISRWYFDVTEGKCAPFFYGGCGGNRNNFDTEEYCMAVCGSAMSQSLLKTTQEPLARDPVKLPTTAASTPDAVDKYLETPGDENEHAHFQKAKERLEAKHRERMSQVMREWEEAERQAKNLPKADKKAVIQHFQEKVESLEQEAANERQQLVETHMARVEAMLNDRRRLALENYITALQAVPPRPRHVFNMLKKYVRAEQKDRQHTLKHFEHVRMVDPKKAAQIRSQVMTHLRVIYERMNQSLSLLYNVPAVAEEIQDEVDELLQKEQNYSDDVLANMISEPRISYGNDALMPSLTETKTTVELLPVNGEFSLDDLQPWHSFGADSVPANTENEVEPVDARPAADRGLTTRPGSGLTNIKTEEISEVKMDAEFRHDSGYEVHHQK
T1 sequence (P05067 18-687 limits assumed): as above
T3 sequence (P05067 18-687 limits assumed): as above
T2 sequence (P05067 18-671 limits assumed): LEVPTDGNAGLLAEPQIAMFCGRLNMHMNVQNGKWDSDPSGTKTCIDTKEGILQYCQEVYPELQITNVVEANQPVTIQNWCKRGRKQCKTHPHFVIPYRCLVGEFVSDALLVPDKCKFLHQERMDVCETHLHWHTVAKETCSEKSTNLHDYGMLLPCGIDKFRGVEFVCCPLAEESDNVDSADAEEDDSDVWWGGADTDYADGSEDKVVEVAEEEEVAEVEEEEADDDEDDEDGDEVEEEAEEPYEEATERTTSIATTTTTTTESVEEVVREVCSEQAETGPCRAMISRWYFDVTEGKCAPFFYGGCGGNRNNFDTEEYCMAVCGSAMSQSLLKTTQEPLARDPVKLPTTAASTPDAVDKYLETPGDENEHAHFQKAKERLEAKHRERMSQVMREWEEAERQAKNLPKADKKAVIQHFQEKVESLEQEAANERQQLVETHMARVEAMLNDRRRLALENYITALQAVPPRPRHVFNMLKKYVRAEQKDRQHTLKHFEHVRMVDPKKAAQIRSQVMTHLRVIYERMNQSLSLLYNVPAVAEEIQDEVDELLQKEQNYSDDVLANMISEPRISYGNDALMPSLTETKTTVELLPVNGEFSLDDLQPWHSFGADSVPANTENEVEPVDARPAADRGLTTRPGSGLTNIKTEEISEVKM

Consider `CC(C)C[C@H](NC(=O)[C@H](CCCNC(=N)N)NC(=O)[C@@H](NC(=O)[C@H](CCCNC(=N)N)NC(=O)[C@H](CC(C)C)NC(=O)[C@H](CCCCN)NC(=O)[C@H](CCCCN)NC(=O)[C@H](CCCCN)NC(=O)[C@H](CCCCN)NC(=O)[C@H](CCCCN)NC(=O)[C@@H](N)CCCCN)C(C)C)C(=O)N[C@@H](C)C(=O)N[C@@H](CO)C(=O)N[C@@H](Cc1c[nH]cn1)C(=O)N[C@@H](CC(C)C)C(=O)N[C@@H](CCCNC(=N)N)C(=O)N[C@@H](CCCCN)C(=O)N[C@@H](CC(C)C)C(=O)N[C@@H](CCCNC(=N)N)C(=O)N[C@@H](CCCCN)C(=O)N[C@@H](CCCNC(=N)N)C(=O)N[C@@H](CC(C)C)C(=O)N[C@@H](CC(C)C)C(=O)N[C@@H](CCCNC(=N)N)C(=O)N[C@@H](CC(=O)O)C(=O)N[C@@H](C)C(=O)O` [6KApoEp] (H-KKKKKKLRVRLASHLRKLRKRLLRDA-OH; N-terminus and C-terminus assumed), for which the plasma cholesterol levels result in series [1] is on record as “without altering cell-associated or plasma cholesterol levels”. Moreover, in the series with CHO/APPwt cells [2], the cell-associated cholesterol levels result is recorded as “without altering cell-associated or plasma cholesterol levels”.
Regarding “ApoB100: apolipoprotein B, human plasma (Athens Research & Technology)”, in the series on CHO/APPwt cells [3], the sAPPα secretion result is listed as “decreased sAPPα secretion” and the “Aβ production (Aβ1-40, 42)” value is “increased Aβ1-40, 42 production; also recorded: markedly promote amyloid β protein (Aβ) production”.
With “DYKDDDDK-LRVRLASHLRKLRKRLLRDA (DYKDDDDKLRVRLASHLRKLRKRLLRDA; N-terminal FLAG ApoE recombinant polypeptide) [FlagApoEp, ApoEp modified by N-terminal addition of Flag-Tag]”, the “Aβ production (Aβ1-40, 42)” value in the series with CHO/APPwt cells [3] is listed as “greatly enhanced the efficacy of ApoEp to increase Aβ1-40, 42 levels”.
On to “KKKLRVRLASHLRKLRKRLLRDA (polypeptide configured to modulate binding of a protein the an ApoE receptor) [3KApoEp, ApoEp with 3 N-terminal lysines]”, for which the “Aβ production (Aβ1-40, 42)” value with CHO/APPwt cells [3] is recorded as “terminated this amyloidogenic effect”. Further, in the series on CHO/APPwt cells [4] (peptide 10 μM for 15 min, then with or without hu rec ApoE4 10 μg/mL for 2 hours), the “basal and apoE4-induced Aβ production” value is on record as “moderately”. Also, the “Aβ generation induced by human plasma ApoE3, human recombinant ApoE3 and ApoE4, human plasma LDL and ApoB100” value in the series on CHO/APPwt cells [4] (pre-treatment at about 10 μM, then inducer for about 2 hours) is on record as “Markedly Inhibits Aβ Generation”.

B1: 6K (6 lysine peptide) (peptide)
peptide: KKKKKK
notes: Control peptide of six lysines; also called 6K lysine
Turning to B1, the binding result is “no binding (tested: 100 nM)” in series [5]; “no binding (tested: 100 nM)” in series [6]; “no binding (tested: 100 nM)” in series [7]; “no binding (tested: 10 µM)” in [8]; “no binding (tested: 10 µM)” in [9].
For the molecule KKKKKKLRVRLASHLRKLRKRLLRDA [6KApoEp (ApoE LDLR binding domain peptide with 6 N-terminal lysines)], in series [10], the “apoE4-induced Aβ production in CHO/APPwt cells (Aβ ELISA and WB), IC50” value is 0.32 to 0.63 µM.
